Experimental data published in paper PMC10901950, “Neuroprotective and Anti-inflammatory Effects of Rubiscolin-6 Analogs with Proline Surrogates in Position 2” (Neurochemical Research, 2023).
Square brackets hold non-standard residues; d marks the D form. Ends that are not written are not given here. Peptide text beside a SMILES is read from it. Dmt = Cc1cc(O)cc(C)c1C[C@H](N)C(=O)O; Inp = O=C(O)C1CCNCC1

Tests used:
Caspase-3 = Caspase-3 activity in 6-OHDA-treated SH-SY5Y cells; assay type: cell-based, human; conditions: 6-OHDA 100 µM, 6 h
Experimental: Caspase-3 activity was assessed using “Caspase-3 fluorometric assay” (Sigma, St. Louis, MO, USA) with minor changes adapted by Silva et al.. The cells were treated with 6-OHDA (100 µM) for 6 h in the presence or absence of peptides. After this period, the culture medium was removed, and cells were rinsed with ice-cold PBS and collected by centrifugation at 3300×g for 5 min. The pellets were resuspended in lysis buffer, incubated for about 20 min on ice and finally centrifuged at 22,500×g, 4 °C, for 20 min. Cell lysates were processed following the manufacturer’s protocol, and fluorescence was read at wavelengths of 360 nm (excitation) and 460 nm (emission). Caspase-3 activity was calculated through the curve slope and presented as Δ fluorescence (a.u.)/mg of protein/min). Staurosporine (STAU, 1 µM) was used as positive control.

SH-SY5Y cells = experiment: Neuroprotection in 6-OHDA-treated SH-SY5Y cells (MTT); assay type: cell-based, human; conditions: for neuroprotection after pre-treatment with LY 294002: LY 294002 (PI3-K inhibitor) 20 µM; for neuroprotection after pre-treatment with LY 294002 / neuroprotective effect after pre-treatment with PD 98059: 30 min before peptide and 6-OHDA 100 µM; for neuroprotective effect after pre-treatment with PD 98059: PD 98059 (MEK 1 inhibitor) 50 µM; for peptide neuroprotection with opioid receptor antagonists: β-FNA 10 µM or NLT 10 µM 30 min before peptide (1 and/or 10 µM) and 6-OHDA 100 µM, 24 h
Experimental: The neuroprotective experiments were performed in an in vitro model of a human neuroblastoma cell line (SH-SY5Y) obtained from the German Collection of Microorganisms and Cell Cultures GmbH (DSMZ) Bank (ACC 209). Cells were cultured in Dulbecco’s Modified Eagle’s Medium: Nutrient Mixture F12 (DMEM:F12) supplemented with 1% antibiotic/antimycotic (Amphotericin B, Penicillin and Streptomycin) (Biowest, Nuaillé, France) and 10% (v/v) Fetal Bovine Serum (FBS) (Biowest, Riverside, MO, USA). The anti-inflammatory experiments were performed in an in vitro model of mouse macrophage-like RAW 264.7 cells, purchased from American Type Culture Collection (ATCC, Manassas, VA, USA). Cells were maintained in DMEM medium (Gibco™, Grand Island, NY) and supplemented with 10% bovine calf serum (BCS) (Gibco™, Grand Island, NY) and 1% penicillin–streptomycin (Sigma-Aldrich, St. Louis, MO, USA). Cell cultures were kept at 37 °C in 5% CO2/humidified air.
Cells were incubated with peptides (0.1–10 µM) for 24 h to assess their cytotoxic activity. In the neuroprotective model, SH-SY5Y cells were exposed to 6-OHDA (100 µM) in the absence/presence of peptide at non-toxic concentrations (0.1–10 µM). When needed, a 30 min pre-incubation step with β-funaltrexamine (β-FNA, µ-opioid receptor antagonist, 10 µM), naltrindole (NLT, δ-opioid receptor antagonist, 10 µM), 2’-amino-3’-methoxyflavone (PD 98059, MAPK kinase 1 (MEK 1) inhibitor, 50 µM) or 2-(4-morpholinyl)-8-phenyl-4H-1-benzopyran-4-one (LY 294002, PI3-K inhibitor, 20 µM). Stimulation was terminated by aspiration of the medium and adding 100 µL MTT (1.2 mM) per well. Cells were incubated for 1 h at 37 °C. After this time, MTT was removed, and 100 µL DMSO was added. The resulting absorbance was read in a microplate reader (Biotek, Epoch/2 microplate reader, Winooski, VT, USA) at 570 nm.
Cell metabolic activity (cytotoxicity) was calculated as the percentage of the value obtained for cells incubated with compounds compared to control cells treated with the medium.

AKT = experiment: Western blot, AKT phosphorylation in 6-OHDA-treated SH-SY5Y cells; assay type: cell-based, human; conditions: for AKT phosphorylation / stimulation time for maximum effect on AKT phosphorylation: peptide 10 µM; for AKT phosphorylation: 2.5-10 min, 6-OHDA 100 µM treated cells; for stimulation time for maximum effect on AKT phosphorylation: 6-OHDA-treated cells, p-AKT (Ser473)/total AKT; for effect of peptide on AKT phosphorylation after LY 294002 pre-treatment: LY 294002 20 µM 30 min before peptide 10 µM and 6-OHDA 100 µM, 7.5 min (5), 2.5 min (7)
Experimental: The neuroblastoma SH-SY5Y cells were grown in a 6-well plate and when 80–90% confluent treated with 6-OHDA (100 µM) for 24 h. Then cells were stimulated with peptides for 2.5, 5, 7.5 and 10 min (for AKT) or 24 h (for mTOR). When needed, a 30 min pre-incubation step with LY 294002 was included before analogs and 6-OHDA addition. Stimulation was terminated by aspiration of the medium. Cells were washed 2 times with ice-cold PBS, and then 200 µL of ice-cold lysis buffer [150 mM NaCl, 20 mM Tris–HCl, glycerol, 5 mM EDTA, 0.5 mM phenylmethylsulphonylfluoride (PMSF), 10% Triton X-100, 100 mM protease inhibitors, pH 7.4] was added. Cells were incubated on ice for 15 min. Lysates were then centrifuged at 12,000×g for 10 min at 4 °C, and the supernatants were used as the total cell lysates. The protein content in the supernatants was quantified using the Bio-Rad protein assay kit. Equal amounts of protein were separated on 10% sodium dodecyl sulfate (SDS)-polyacrylamide gels and transferred to polyvinylidene difluoride membranes from (PVDF, Millipore, Cork, Ireland). Non-specific binding was blocked with tris-buffered saline Tween-20 (TBS-T: 150 mM NaCl, 20 mM Tris–HCl, 0.1% Tween 20, pH 7.5) containing 5% nonfat milk for 2 h at room temperature. Then, the membrane was incubated overnight at 4 °C with one of the following specific primary antibodies: Vinculin (1:1000 dilution; Cell Signalling Technology, Danvers, MA, USA), p-AKT (1:1000 dilution; Cell Signalling Technology, Danvers, MA, USA), AKT (1:1000 dilution; Cell Signalling Technology, Danvers, MA, USA), p-mTOR (1:1000 dilution; Cell Signalling Technology, Danvers, MA, USA), mTOR (1:1000 dilution; Cell Signalling Technology, Danvers, MA, USA). After incubation, membranes were washed six times per 5 min with TBS-T. In the next step, membranes were incubated with HRP-conjugated secondary antibodies (1:1000 dilution; Cell Signalling Technology, Danvers, MA, USA) for 1 h. Following six washes with TBS-T, the protein bands were detected with the Clarity Western ECL reagent from Bio-Rad. The band intensity was quantified by NIH ImageJ densitometric analysis. For quantification, specific phosphorylation was calculated as the ratio of phosphorylated AKT or mTOR signals to the total Akt or mTOR signal detected. Values of unstimulated samples were set to 1.0. The original immunoblots are provided in Supplementary data.

mTOR = experiment: Western blot, mTOR phosphorylation in 6-OHDA-treated SH-SY5Y cells; assay type: cell-based, human; conditions: peptide 1 and 10 µM, 24 h
Experimental: The neuroblastoma SH-SY5Y cells were grown in a 6-well plate and when 80–90% confluent treated with 6-OHDA (100 µM) for 24 h. Then cells were stimulated with peptides for 2.5, 5, 7.5 and 10 min (for AKT) or 24 h (for mTOR). When needed, a 30 min pre-incubation step with LY 294002 was included before analogs and 6-OHDA addition. Stimulation was terminated by aspiration of the medium. Cells were washed 2 times with ice-cold PBS, and then 200 µL of ice-cold lysis buffer [150 mM NaCl, 20 mM Tris–HCl, glycerol, 5 mM EDTA, 0.5 mM phenylmethylsulphonylfluoride (PMSF), 10% Triton X-100, 100 mM protease inhibitors, pH 7.4] was added. Cells were incubated on ice for 15 min. Lysates were then centrifuged at 12,000×g for 10 min at 4 °C, and the supernatants were used as the total cell lysates. The protein content in the supernatants was quantified using the Bio-Rad protein assay kit. […] Following six washes with TBS-T, the protein bands were detected with the Clarity Western ECL reagent from Bio-Rad. The band intensity was quantified by NIH ImageJ densitometric analysis. For quantification, specific phosphorylation was calculated as the ratio of phosphorylated AKT or mTOR signals to the total Akt or mTOR signal detected. […]

[1] = Ferric reducing antioxidant power (FRAP); conditions: peptides 10 µM, 37 °C, 30 min, absorbance 593 nm; mean ± SEM
Experimental: FRAP assay adapted to microscale with minor modifications was used to measure the ferric reducing ability of peptides. Acetate buffer (0.3 M, pH 3.6), 2,4,6-Tris(2-pyridyl)-s-triazine (TPTZ, 10 mM prepared in 40 mM HCl), and ferric solutions (20 mM) were freshly mixed at a ratio of 10:1:1 and place in a 96-well microplate. Then, 198 µL of FRAP reagent and 2 µL of the peptide sample was mixed and incubated at 37 °C in the dark for 30 min. The absorbance was measured at 593 nm using a microplate reader (Bioteck, Epoch/2 microplate reader, Winooski, VT, USA). The difference between the absorbance of the test sample and the blank reading was calculated and expressed as µM of FeSO4/g of the peptide. FeSO4 was used as standard.

Row | Compound | effect on Caspase-3 activity induced by 6-OHDA (Caspase-3; peptide 10 µM) | neuroprotection after pre-treatment with LY 294002 (SH-SY5Y cells) | neuroprotective effect after pre-treatment with PD 98059 (SH-SY5Y cells) | peptide neuroprotection with opioid receptor antagonists (SH-SY5Y cells) | effect on Caspase-3 activity induced by 6-OHDA (Caspase-3; peptides 0.1-10 µM) | AKT phosphorylation (AKT) | stimulation time for maximum effect on AKT phosphorylation (AKT) | phosphorylated mTOR compared with the 6-OHDA-injured group (mTOR) | effect of peptide on AKT phosphorylation after LY 294002 pre-treatment (AKT) | FRAP, ability to reduce iron ions [1]
1 | Cc1cc(O)cc(C)c1C[C@H](N)C(=O)N1CCC[C@H]1C(=O)N[C@@H](CC(C)C)C(=O)N[C@@H](CC(=O)O)C(=O)N[C@@H](CC(C)C)C(=O)N[C@@H](Cc1ccccc1)C(=O)O [analog 1, Dmt-Pro-Leu-Asp-Leu-Phe-OH] (H-[Dmt]PLDLF-OH) | showed the potency to suppress | significantly weakened | didn’t inhibit | did not abolish | – | – | – | – | – | –
2 | CC(C)C[C@H](NC(=O)C1CCN(C(=O)[C@@H](N)Cc2ccc(O)cc2)CC1)C(=O)N[C@@H](CC(=O)O)C(=O)N[C@@H](CC(C)C)C(=O)N[C@@H](Cc1ccccc1)C(=O)O [analog 3, Tyr-Inp-Leu-Asp-Leu-Phe-OH] (H-Y[Inp]LDLF-OH) | – | significantly weakened | didn’t inhibit | did not abolish | most efficiently | transiently stimulated | 7.5 min | – | – | –
3 | Cc1cc(O)cc(C)c1C[C@H](N)C(=O)N1CCC(C(=O)N[C@@H](CC(C)C)C(=O)N[C@@H](CC(=O)O)C(=O)N[C@@H](CC(C)C)C(=O)N[C@@H](Cc2ccccc2)C(=O)O)CC1 [analog 5, Dmt-Inp-Leu-Asp-Leu-Phe-OH] (H-[Dmt][Inp]LDLF-OH) | – | significantly weakened | didn’t inhibit | some slight µ- and δ-opioid receptor antagonist effect is evident | active only at the highest dose | transiently stimulated | 7.5 min | significant increase | significantly blocked | –
4 | CC(C)C[C@H](NC(=O)C1CCN(C(=O)[C@@H](N)Cc2ccc(O)cc2)CC1)C(=O)N[C@@H](CC(=O)O)C(=O)N[C@@H](CC(C)C)C(=O)N[C@@H](Cc1ccccc1)C(N)=O [analog 7, Tyr-Inp-Leu-Asp-Leu-Phe-NH2] (H-Y[Inp]LDLF-NH2) | – | significantly weakened | didn’t inhibit | did not abolish | most efficiently | transiently stimulated | 2.5 min | significant increase | significantly blocked | –
5 | YPLDLF [R-6, rubiscolin-6] | – | – | – | – | didn’t decrease | – | – | – | – | 1.09 ± 0.20 µM Eq. FeSO4/g of peptide
6 | YPLDLF-NH2 [analog 6, Tyr-Pro-Leu-Asp-Leu-Phe-NH2] | – | – | – | – | – | – | – | – | – | 0.87 ± 0.22 µM Eq. FeSO4/g of peptide
